Measurements as given in patent USRE30451E, “Novel process for producing antibiotics bleomycin” (priority 1969, dated 1980).

How the values were obtained:
[1] = tumour-inoculated ICR/JCL mice, intraperitoneally once a day for 10 days, doses 25 mg/kg to 0.19 mg/kg, Behres-Karber's method, observed up to 50 days
[2] = system: Ehrlich ascites carcinoma cells; settings: for ED50: maximum dose level at which mice survive 100 to 200 percent of control survival days, intraperitoneally once a day for 10 days, doses 25 mg/kg to 0.19 mg/kg; for anti-tumor effect (in words): mouse, in vivo
[3] = system: Ehrlich ascites carcinoma cells; assay: Life-prolongation effect and toxicity in mice inoculated with ascites type Ehrlich carcinoma; settings: mouse, in vivo

SMILES: Cc1c(N)nc(C(CC(N)=O)NCC(N)C(N)=O)nc1C(=O)NC(C(=O)NC(C)C(O)C(C)C(=O)NC(C(=O)NCCc1nc(-c2nc(C(=O)NCCCNCCCN(C)C)cs2)cs1)C(C)O)C(OC1OC(CO)C(O)C(O)C1OC1OC(CO)C(O)C(OC(N)=O)C1O)c1cnc[nH]1 (stereo not drawn) [Compound 21]
- LD50 [1]: 10.3
- ED50 [2]: 0.19

SMILES: COCCCNCCCNC(=O)c1csc(-c2csc(CCNC(=O)C(NC(=O)C(C)C(O)C(C)NC(=O)C(NC(=O)c3nc(C(CC(N)=O)NCC(N)C(N)=O)nc(N)c3C)C(OC3OC(CO)C(O)C(O)C3OC3OC(CO)C(O)C(OC(N)=O)C3O)c3cnc[nH]3)C(C)O)n2)n1 (stereo not drawn) [Compound 33, 3-(3-methoxypropyl)-aminopropylaminobleomycin]
- LD50 [1]: 7.5
- ED50 [2]: 0.19

SMILES: Cc1c(N)nc(C(CC(N)=O)NCC(N)C(N)=O)nc1C(=O)NC(C(=O)NC(C)C(O)C(C)C(=O)NC(C(=O)NCCc1nc(-c2nc(C(=O)NCCCNC(C)c3ccccc3)cs2)cs1)C(C)O)C(OC1OC(CO)C(O)C(O)C1OC1OC(CO)C(O)C(OC(N)=O)C1O)c1cnc[nH]1 (stereo not drawn) [Compound 35, 3-(1-phenylethyl)-aminopropyl-amino-bleomycin]
- ED50 [2]: 0.19
- anti-tumor effect (in words) [2]: excellent in effect
- toxicity (in words) [3]: less toxicity

SMILES: Cc1c(N)nc([C@H](CC(N)=O)NC[C@H](N)C(N)=O)nc1C(=O)N[C@H](C(=O)N[C@H](C)[C@@H](O)[C@H](C)C(=O)N[C@H](C(=O)NCCc1nc(-c2nc(C(=O)NCCCNCCCCN)cs2)cs1)[C@@H](C)O)[C@@H](O[C@@H]1O[C@@H](CO)[C@@H](O)[C@H](O)[C@@H]1O[C@@H]1O[C@H](CO)[C@@H](O)[C@H](OC(N)=O)[C@@H]1O)c1cnc[nH]1 [Compound 7, Bleomycin A5, reference compound]
- LD50 [1]: 15.6
- ED50 [2]: 0.19
- anti-tumor effect (in words) [2]: strong in anti-tumor property
- toxicity (in words) [3]: less in toxicity

SMILES: Cc1c(N)nc(C(CC(N)=O)NCC(N)C(N)=O)nc1C(=O)NC(C(=O)NC(C)C(O)C(C)C(=O)NC(C(=O)NCCc1nc(-c2nc(C(=O)NCCCNCCCNC(C)c3ccccc3)cs2)cs1)C(C)O)C(OC1OC(CO)C(O)C(O)C1OC1OC(CO)C(O)C(OC(N)=O)C1O)c1cnc[nH]1 (stereo not drawn) [Compound 15]
- LD50 [1]: 13.1
- ED50 [2]: 0.39

SMILES: Cc1c(N)nc(C(CC(N)=O)NCC(N)C(N)=O)nc1C(=O)NC(C(=O)NC(C)C(O)C(C)C(=O)NC(C(=O)NCCc1nc(-c2nc(C(=O)NCC3CCNCC3)cs2)cs1)C(C)O)C(OC1OC(CO)C(O)C(O)C1OC1OC(CO)C(O)C(OC(N)=O)C1O)c1cnc[nH]1 (stereo not drawn) [Compound 41, 4-piperidylmethylamino-bleomycin]
- ED50 [2]: 0.78

SMILES: Cc1c(N)nc(C(CC(N)=O)NCC(N)C(N)=O)nc1C(=O)NC(C(=O)NC(C)C(O)C(C)C(=O)NC(C(=O)NCCc1nc(-c2nc(C(=O)NCCCN3CCCCC3)cs2)cs1)C(C)O)C(OC1OC(CO)C(O)C(O)C1OC1OC(CO)C(O)C(OC(N)=O)C1O)c1cnc[nH]1 (stereo not drawn) [Compound 25, 3-(piperidino)-propylamino-bleomycin]
- ED50 [2]: 0.39

SMILES: Cc1c(N)nc([C@H](CC(N)=O)NC[C@H](N)C(N)=O)nc1C(=O)N[C@H](C(=O)N[C@H](C)[C@@H](O)[C@H](C)C(=O)N[C@H](C(=O)NCCc1nc(-c2nc(C(=O)NCCCCN=C(N)N)cs2)cs1)[C@@H](C)O)[C@@H](O[C@@H]1O[C@@H](CO)[C@@H](O)[C@H](O)[C@@H]1O[C@H]1O[C@H](CO)[C@@H](O)[C@H](OC(N)=O)[C@@H]1O)c1cnc[nH]1 [Compound 3, Bleomycin B2, reference compound]
- LD50 [1]: 7.5
- ED50 [2]: 0.78

SMILES: Cc1c(N)nc(C(CC(N)=O)NCC(N)C(N)=O)nc1C(=O)NC(C(=O)NC(C)C(O)C(C)C(=O)NC(C(=O)NCCc1nc(-c2nc(C(=O)NCCCNCCCN3CCCC3)cs2)cs1)C(C)O)C(OC1OC(CO)C(O)C(O)C1OC1OC(CO)C(O)C(OC(N)=O)C1O)c1cnc[nH]1 (stereo not drawn) [Compound 29, 3-(3-pyrrolidinopropyl)-aminopropylamino-bleomycin]
- ED50 [2]: 0.09

SMILES: CO[C@@]12[C@H](COC(N)=O)C3=C(C(=O)C(C)=C(N)C3=O)N1C[C@@H]1N[C@@H]12 [Mytomycin C, reference compound]
- ED50 [2]: 0.39

SMILES: CNCCCNC(=O)c1csc(-c2csc(CCNC(=O)C(NC(=O)C(C)C(O)C(C)NC(=O)C(NC(=O)c3nc(C(CC(N)=O)NCC(N)C(N)=O)nc(N)c3C)C(OC3OC(CO)C(O)C(O)C3OC3OC(CO)C(O)C(OC(N)=O)C3O)c3cnc[nH]3)C(C)O)n2)n1 (stereo not drawn) [Compound 17, 3-N-methylaminopropylamino-bleomycin]
- ED50 [2]: 0.19

SMILES: Cc1c(N)nc(C(CC(N)=O)NCC(N)C(N)=O)nc1C(=O)NC(C(=O)NC(C)C(O)C(C)C(=O)NC(C(=O)NCCc1nc(-c2nc(C(=O)NCC(C)N)cs2)cs1)C(C)O)C(OC1OC(CO)C(O)C(O)C1OC1OC(CO)C(O)C(OC(N)=O)C1O)c1cnc[nH]1 (stereo not drawn) [Compound 16, 2-aminopropylamino-bleomycin]
- ED50 [2]: 0.39
